Test results taken from patent publication US20230391752A1, “PYRROLIDINE-3-CARBOXAMIDE DERIVATIVES AND RELATED USES” (Chulalongkorn University, priority 2020, published 2023).

tested on: HBV; assay: In vitro anti-HBV activity in HepG2.2.15 cell line (intracellular HBV DNA by qPCR at 1 μM); assay type: cell-based; conditions: Hepatitis B virus, 144 h; HepG2.2.15 cells, 1 μM compound, 6 days, intracellular HBV DNA as percentage compared to vehicle control (0.5% DMSO)
Protocol: The stable transfected HBV cell line, called HepG2.2.15 cells was a valuable model with high reproducibility and commonly used for drug screening. To identify the anti-HBV activity, HepG2.2.15 cells were seeded at 5×10^5 cells/well with high glucose Dulbecco's modified Eagle medium (DMEM) containing 10% heat inactivated fetal bovine serum (FBS), 300 mg/L G418, non-essential amino acids (NEAA) 100 units/ml Antibiotic-Antimycotic, and allowed to stand for an overnight in an incubator set at 37° C. and 5% C02. HepG2.2.15 cells in each well were treated with the medium containing a compound (1 μM with 0.5% dimethyl sulfoxide (DMSO final concentration) for three days in the incubator. After that the medium was removed and fresh medium containing the compound was added to the cells for another 3 days. After 6 days of treatment, intracellular HBV DNA was extracted and determined by using quantitative real-time PCR (qPCR) technique with specific primers. Intrahepatic HBV DNA viral load was reported as percentage compared to vehicle control (0.5% DMSO) as shown in Table A.
“B” means % ranging between 80 and 90; “C” means % ranging between 70 and 80; “D” means % ranging between 60 and 70; “E” means % ranging between 45 and 60, “F” means %<45.

**Q.** With O=C(Nc1cc(F)c(F)c(F)c1)[C@H]1CCN(C(=O)c2ccc(-c3cncnc3)[nH]2)C1 [Example 79, (S)-1-(5-(pyrimidin-5-yl)-1H-pyrrole-2-carbonyl)-N-(3,4,5-trifluorophenyl)pyrrolidine-3-carboxamide] as the compound, how does the activity at 1 µM read?
**A.** Its activity at 1 µM is under 45%.

**Q.** How did the activity at 1 µM turn out when C[C@H]1[C@@H](C(=O)Nc2cc(F)c(F)c(F)c2)CCN1C(=O)c1ccc(-c2cnccn2)[nH]1 [Example 84, (2S,3S)-2-methyl-1-(5-(pyrazin-2-yl)-1H-pyrrole-2-carbonyl)-N-(3,4,5-trifluorophenyl) pyrrolidine-3-carboxamide] was run?
**A.** Its activity at 1 µM is over 90%.

**Q.** How did the activity at 1 µM turn out when O=C(Nc1cc(F)c(F)c(F)c1)[C@H]1CCN(C(=O)c2c[nH]c3ccccc23)C1 [Example 26, (S)-1-(1H-indole-3-carbonyl)-N-(3,4,5-trifluorophenyl)pyrrolidine-3-carboxamide] was run?
**A.** Its activity at 1 µM is 80 to 90%.

**Q.** CC(C)c1ccc(C(=O)N2CC[C@H](C(=O)Nc3cc(F)c(F)c(F)c3)C2)[nH]1 [Example 61, (S)-1-(5-isopropyl-1H-pyrrole-2-carbonyl)-N-(3,4,5-trifluorophenyl)pyrrolidine-3-carboxamide] was tested. Which activity at 1 µM did it give?
**A.** Its activity at 1 µM is 60 to 70%.

**Q.** Which activity at 1 µM does the source give for C[C@H]1[C@@H](C(=O)Nc2cc(F)c(F)c(F)c2)CCN1C(=O)c1cc2cccnc2[nH]1 [Example 17, (2S,3S)-2-methyl-1-(1H-pyrrolo[2,3-b]pyridine-2-carbonyl)-N-(3,4,5-trifluorophenyl) pyrrolidine-3-carboxamide] here?
**A.** Its activity at 1 µM is 60 to 70%.

**Q.** How did the activity at 1 µM turn out when Cc1cc(NC(=O)[C@H]2CCN(C(=O)c3ccc(-c4ccnnc4)[nH]3)C2)ccc1F [Example 130, (S)—N-(4-fluoro-3-methylphenyl)-1-(5-(pyridazin-4-yl)-1H-pyrrole-2-carbonyl)pyrrolidine-3-carboxamide] was run?
**A.** Its activity at 1 µM is under 45%.

**Q.** With O=C(Nc1ccc(F)c(Cl)c1)[C@H]1CCN(C(=O)c2nc3cccnc3[nH]2)C1 [Example 69, (S)—N-(3-chloro-4-fluorophenyl)-1-(3H-imidazo[4,5-b]pyridine-2-carbonyl)pyrrolidine-3-carboxamide] as the compound, how does the activity at 1 µM read?
**A.** Its activity at 1 µM is 70 to 80%.

**Q.** Cc1ncc(-c2ccc(C(=O)N3CC[C@H](C(=O)Nc4cc(F)c(F)c(F)c4)C3)[nH]2)cn1 [Example 86, (S)-1-(5-(2-methylpyrimidin-5-yl)-1H-pyrrole-2-carbonyl)-N-(3,4,5-trifluorophenyl)pyrrolidine-3-carboxamide] was tested. Which activity at 1 µM did it give?
**A.** Its activity at 1 µM is under 45%.

**Q.** O=C(c1cccnc1)c1ccc(C(=O)N2CC[C@H](C(=O)Nc3cc(F)c(F)c(F)c3)C2)[nH]1 [Example 142] was tested. Which activity at 1 µM did it give?
**A.** Its activity at 1 µM is over 90%.

**Q.** Cc1cc(C)c(C(=O)N2CC[C@H](C(=O)Nc3cc(F)c(F)c(F)c3)C2)[nH]1 [Example 34, (S)-1-(3,5-dimethyl-1H-pyrrole-2-carbonyl)-N-(3,4,5-trifluorophenyl)pyrrolidine-3-carboxamide] was tested. Which activity at 1 µM did it give?
**A.** Its activity at 1 µM is over 90%.

**Q.** Cc1cc(C(=O)N2CC[C@H](C(=O)Nc3cc(F)c(F)c(F)c3)C2)[nH]c1C [Example 15, (S)-1-(4,5-dimethyl-1H-pyrrole-2-carbonyl)-N-(3,4,5-trifluorophenyl)pyrrolidine-3-carboxamide] was tested. Which activity at 1 µM did it give?
**A.** The activity at 1 µM was 60 to 70%.

**Q.** How did the activity at 1 µM turn out when Cc1ncnc(C)c1-c1ccc(C(=O)N2CC[C@H](C(=O)Nc3ccc(F)c(C4CC4)c3)[C@@H]2C)[nH]1 [Example 170, (2S,3S)—N-(3-cyclopropyl-4-fluorophenyl)-1-(5-(4,6-dimethylpyrimidin-5-yl)-1H-pyrrole-2-carbonyl)-2-methylpyrrolidine-3-carboxamide] was run?
**A.** Its activity at 1 µM is under 45%.

**Q.** How did the activity at 1 µM turn out when N#Cc1ncccc1-c1ccc(C(=O)N2CC[C@H](C(=O)Nc3cc(F)c(F)c(F)c3)C2)[nH]1 [Example 97, (S)-1-(5-(2-cyanopyridin-3-yl)-1H-pyrrole-2-carbonyl)-N-(3,4,5-trifluorophenyl) pyrrolidine-3-carboxamide] was run?
**A.** The activity at 1 µM was under 45%.

**Q.** Which activity at 1 µM does the source give for O=C(Nc1cc(F)c(F)c(F)c1)[C@H]1CCN(C(=O)c2cccc3cc[nH]c23)C1 [Example 6, (S)-1-(1H-indole-7-carbonyl)-N-(3,4,5-trifluorophenyl)pyrrolidine-3-carboxamide] here?
**A.** Its activity at 1 µM is over 90%.

**Q.** C[C@H]1[C@@H](C(=O)Nc2cc(F)c(F)c(F)c2)CCN1C(=O)c1cc2ncccc2[nH]1 [Example 64, (2S,3S)-2-methyl-1-(1H-pyrrolo[3,2-b]pyridine-2-carbonyl)-N-(3,4,5-trifluorophenyl) pyrrolidine-3-carboxamide] was tested. Which activity at 1 µM did it give?
**A.** Its activity at 1 µM is 70 to 80%.

**Q.** With O=C(Nc1cc(F)c(F)c(F)c1)[C@H]1CCN(C(=O)c2nccs2)C1 [Example 28, (S)-1-(thiazole-2-carbonyl)-N-(3,4,5-trifluorophenyl)pyrrolidine-3-carboxamide] as the compound, how does the activity at 1 µM read?
**A.** Its activity at 1 µM is over 90%.

**Q.** O=C(Nc1cc(F)c(F)c(F)c1)[C@H]1CCN(C(=O)c2ccc[nH]2)C1 [Example 48, (S)-1-(1H-pyrrole-2-carbonyl)-N-(3,4,5-trifluorophenyl)pyrrolidine-3-carboxamide] was tested. Which activity at 1 µM did it give?
**A.** The activity at 1 µM was 80 to 90%.

**Q.** O=C(Nc1cc(F)c(F)c(F)c1)[C@H]1CCN(C(=O)c2cc3ccncc3[nH]2)C1 [Example 47, (S)-1-(1H-pyrrolo[2,3-c]pyridine-2-carbonyl)-N-(3,4,5-trifluorophenyl)pyrrolidine-3-carboxamide] was tested. Which activity at 1 µM did it give?
**A.** Its activity at 1 µM is 80 to 90%.

**Q.** With O=C(Nc1cc(F)c(F)c(F)c1)[C@H]1CCN(C(=O)c2cnc[nH]2)C1 [Example 30, (S)-1-(1H-imidazole-5-carbonyl)-N-(3,4,5-trifluorophenyl)pyrrolidine-3-carboxamide] as the compound, how does the activity at 1 µM read?
**A.** The activity at 1 µM was over 90%.

**Q.** O=C(Nc1cc(F)c(F)c(F)c1)[C@H]1CCN(C(=O)c2ncc[nH]2)C1 [Example 27, (S)-1-(1H-imidazole-2-carbonyl)-N-(3,4,5-trifluorophenyl)pyrrolidine-3-carboxamide] was tested. Which activity at 1 µM did it give?
**A.** The activity at 1 µM was over 90%.

**Q.** Which activity at 1 µM does the source give for Cc1ccc2cc(C(=O)N3CC[C@H](C(=O)Nc4cc(F)c(F)c(F)c4)C3)[nH]c2c1 [Example 13, (S)-1-(6-methyl-1H-indole-2-carbonyl)-N-(3,4,5-trifluorophenyl)pyrrolidine-3-carboxamide] here?
**A.** Its activity at 1 µM is 60 to 70%.

**Q.** With Cc1nn(CC(=O)N2CC(O)C2)c(C)c1-c1ccc(C(=O)N2CC[C@H](C(=O)Nc3cc(F)c(F)c(F)c3)C2)[nH]1 [Example 112, (S)-1-(5-(1-(2-(3-hydroxyazetidin-1-yl)-2-oxoethyl)-3,5-dimethyl-1H-pyrazol-4-yl)-1H-pyrrole-2-carbonyl)-N-(3,4,5-trifluorophenyl)pyrrolidine-3-carboxamide] as the compound, how does the activity at 1 µM read?
**A.** The activity at 1 µM was 60 to 70%.

**Q.** Which activity at 1 µM does the source give for N#Cc1cc(NC(=O)[C@H]2CCN(C(=O)c3[nH]c4ccccc4c3Cl)C2)ccc1F [Example 43, (S)-1-(3-chloro-1H-indole-2-carbonyl)-N-(3-cyano-4-fluorophenyl)pyrrolidine-3-carboxamide] here?
**A.** The activity at 1 µM was 45 to 60%.

**Q.** For Cc1ccc(C(=O)N2CC[C@H](C(=O)Nc3ccc(F)c(Cl)c3)C2)[nH]1 [Example 33, (S)—N-(3-chloro-4-fluorophenyl)-1-(5-methyl-1H-pyrrole-2-carbonyl)pyrrolidine-3-carboxamide], which activity at 1 µM is on record?
**A.** Its activity at 1 µM is 80 to 90%.

**Q.** How did the activity at 1 µM turn out when O=C(Nc1cc(F)c(F)c(F)c1)[C@H]1CCN(C(=O)c2cc3cnccc3[nH]2)C1 [Example 46, (S)-1-(1H-pyrrolo[3,2-c]pyridine-2-carbonyl)-N-(3,4,5-trifluorophenyl)pyrrolidine-3-carboxamide] was run?
**A.** The activity at 1 µM was 60 to 70%.

**Q.** With Cc1noc(C)c1-c1ccc(C(=O)N2CC[C@H](C(=O)Nc3cc(F)c(F)c(F)c3)C2)[nH]1 [Example 109, (S)-1-(5-(3,5-dimethylisoxazol-4-yl)-1H-pyrrole-2-carbonyl)-N-(3,4,5-trifluorophenyl) pyrrolidine-3-carboxamide] as the compound, how does the activity at 1 µM read?
**A.** The activity at 1 µM was 60 to 70%.

**Q.** O=C(Nc1cc(F)c(F)c(F)c1)[C@H]1CCN(C(=O)c2cc3occc3[nH]2)C1 [Example 9, (S)-1-(4H-furo[3,2-b]pyrrole-5-carbonyl)-N-(3,4,5-trifluorophenyl)pyrrolidine-3-carboxamide] was tested. Which activity at 1 µM did it give?
**A.** Its activity at 1 µM is 80 to 90%.

**Q.** Cc1ccc(C(=O)N2CC[C@H](C(=O)Nc3cc(F)c(F)c(Br)c3)C2)[nH]1 [Example 51, (S)—N-(3-bromo-4,5-difluorophenyl)-1-(5-methyl-1H-pyrrole-2-carbonyl)pyrrolidine-3-carboxamide] was tested. Which activity at 1 µM did it give?
**A.** Its activity at 1 µM is 45 to 60%.

**Q.** How did the activity at 1 µM turn out when O=C(Nc1cc(F)c(F)c(F)c1)[C@H]1CCN(C(=O)c2ccc(-c3ccccn3)[nH]2)C1 [Example 90, (S)-1-(5-(pyridin-2-yl)-1H-pyrrole-2-carbonyl)-N-(3,4,5-trifluorophenyl)pyrrolidine-3-carboxamide] was run?
**A.** The activity at 1 µM was 70 to 80%.

**Q.** For Cc1nccnc1-c1ccc(C(=O)N2CC[C@H](C(=O)Nc3cc(F)c(F)c(F)c3)C2)[nH]1 [Example 92, (S)-1-(5-(3-methylpyrazin-2-yl)-1H-pyrrole-2-carbonyl)-N-(3,4,5-trifluorophenyl)pyrrolidine-3-carboxamide], which activity at 1 µM is on record?
**A.** Its activity at 1 µM is 45 to 60%.

**Q.** For O=C(Nc1cc(F)c(F)c(F)c1)[C@H]1CCN(C(=O)c2ccc(-c3cccnc3)[nH]2)C1 [Example 82], which activity at 1 µM is on record?
**A.** The activity at 1 µM was 45 to 60%.

**Q.** For Cc1n[nH]cc1C(=O)N1CC[C@H](C(=O)Nc2cc(F)c(F)c(F)c2)C1 [Example 31, (S)-1-(3-methyl-1H-pyrazole-4-carbonyl)-N-(3,4,5-trifluorophenyl)pyrrolidine-3-carboxamide], which activity at 1 µM is on record?
**A.** The activity at 1 µM was over 90%.

**Q.** With Cc1cc(NC(=O)[C@H]2CCN(C(=O)c3ccc(-c4c(C)nn(CC(=O)O)c4C)[nH]3)[C@H]2C)ccc1F [Example 147, 2-(4-(5-((2S,3S)-3-((4-fluoro-3-methylphenyl)carbamoyl)-2-methylpyrrolidine-1-carbonyl)-1H-pyrrol-2-yl)-3,5-dimethyl-1H-pyrazol-1-yl)acetic acid] as the compound, how does the activity at 1 µM read?
**A.** Its activity at 1 µM is 45 to 60%.
